# Data reported in patent EP4745135A1 (Gluetacs Therapeutics (Shanghai) Co., Ltd., priority 2023, dated 2025).
# Legend:
# [1] = target: T1, human Cereblon WT GST-tagged protein (Homo sapiens, UniProt Q96SW2); test: CRBN-binding affinity, HTRF (CEREBLON BINDING kit); conditions: for inhibition at 0.5 µM: read-out: Inhibition Rate at 0.5 µM (%); for inhibition at 2 µM: read-out: Inhibition Rate at 2 µM (%)
# T1 construct: purchased CISBIO 64BDCRBNPEH
# [2] = system: Human breast cancer cell (MCF-7); test: Tumor cell proliferation inhibition (CellTiter-Meiluncell luminescent cell viability assay); conditions: MCF7, 96 h; for inhibition at 0.01 µM: read-out: Inhibition Rate at 10 nM (%); for inhibition at 0.5 µM: read-out: Inhibition Rate at 500 nM (%)
# Method: (§1) The tumor cells used herein were cultured in a cell culture medium listed in table 2 at 37°C in an incubator with 5% CO2. Prior to experimentation, all cell lines used were correctly identified by STR profiling, and tested negative for mycoplasma contamination using a mycoplasma detection kit through routine screenings.
# (§2) The IC50 values of the compounds of the present disclosure (including the compounds in Table 1 and Examples) were determined using the CellTiter-Meiluncell Luminescent Cell Viability Assay Kit from Dalian Meilun Biotech Co., Ltd. The detailed procedure is as follows: Tumor cells were seeded in 96-well cell culture plates at the densities specified in Table 3. On the following day, the test compounds of the present disclosure were subjected to serial dilution. The dilution can be performed according to one of the following two methods: • (1) The first dilution method: The test compounds of the present disclosure (including the compounds in Table 1 and Examples) were subjected to 5-fold serial dilutions starting from a highest concentration of 2000 µM, resulting in a total of 9 concentrations from high to low (2000, 400, 80, 16, 3.2, 0.64, 0.128, 0.0256, 0.00512 µM). Subsequently, 0.5 µL of the test compound dilution was transferred into the 96-well plate containing the cells, with each well containing 100 µL of cell culture medium. […] Into the 96-well plate, the diluted test compounds and corresponding detection reagents were added, resulting in final test compound concentrations of 500 nM and 10 nM, respectively. The experimental procedure is described below using the diluted 2 µM test compound as an example.
# (§3) 0.5 µL of the aforementioned diluted compound of the present disclosure (including the compounds in Table 1 and Examples) was added to the seeded cells in 100 µL of medium, yielding a final test compound concentration of 10 nM. After the cells were treated with the compounds of the present disclosure for a specified period, the cell viability assay reagent was added to the culture medium according to the kit's instructions to determine cell viability. […] All controls were treated using the same procedure as the compounds of the present disclosure. The growth inhibition curves for the compounds of the present disclosure were plotted using Prism GraphPad software, and the IC50 values were calculated therefrom.
# CK1α = target: T2, CK1α (Homo sapiens, UniProt P48729+Q96SW2); test: Western blot, degradation of substrate protein in hPBMCs; type: cell-based
# T2 construct: effects of the compounds of the present disclosure on the expression of target proteins in cells; endogenous in cells; host or cells: human PBMCs (Milecell Biotechnologies)
# T2 sequence (P48729 whole entry): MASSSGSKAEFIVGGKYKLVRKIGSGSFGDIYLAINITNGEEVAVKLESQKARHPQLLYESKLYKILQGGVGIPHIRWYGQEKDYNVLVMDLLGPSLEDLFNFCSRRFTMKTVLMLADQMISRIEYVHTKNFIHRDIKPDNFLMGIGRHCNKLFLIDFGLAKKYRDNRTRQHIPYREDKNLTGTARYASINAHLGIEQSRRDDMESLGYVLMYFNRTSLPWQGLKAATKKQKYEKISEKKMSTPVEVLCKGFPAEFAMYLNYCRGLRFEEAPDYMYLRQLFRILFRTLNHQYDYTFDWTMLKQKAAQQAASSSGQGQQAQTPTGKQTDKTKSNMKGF
# T2 sequence (Q96SW2 whole entry): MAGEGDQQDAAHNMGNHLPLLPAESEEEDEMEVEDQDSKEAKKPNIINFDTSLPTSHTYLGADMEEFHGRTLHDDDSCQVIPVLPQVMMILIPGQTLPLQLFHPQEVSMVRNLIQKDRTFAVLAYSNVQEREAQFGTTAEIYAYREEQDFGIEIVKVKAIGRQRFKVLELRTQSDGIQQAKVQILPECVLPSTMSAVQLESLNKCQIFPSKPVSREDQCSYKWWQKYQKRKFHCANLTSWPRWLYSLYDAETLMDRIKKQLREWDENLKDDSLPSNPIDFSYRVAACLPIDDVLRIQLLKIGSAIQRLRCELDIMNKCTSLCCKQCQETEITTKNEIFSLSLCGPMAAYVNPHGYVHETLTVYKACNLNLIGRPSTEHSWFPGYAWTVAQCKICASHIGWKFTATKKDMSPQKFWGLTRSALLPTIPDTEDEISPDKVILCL
# T2 sequence (Q16531 whole entry partner): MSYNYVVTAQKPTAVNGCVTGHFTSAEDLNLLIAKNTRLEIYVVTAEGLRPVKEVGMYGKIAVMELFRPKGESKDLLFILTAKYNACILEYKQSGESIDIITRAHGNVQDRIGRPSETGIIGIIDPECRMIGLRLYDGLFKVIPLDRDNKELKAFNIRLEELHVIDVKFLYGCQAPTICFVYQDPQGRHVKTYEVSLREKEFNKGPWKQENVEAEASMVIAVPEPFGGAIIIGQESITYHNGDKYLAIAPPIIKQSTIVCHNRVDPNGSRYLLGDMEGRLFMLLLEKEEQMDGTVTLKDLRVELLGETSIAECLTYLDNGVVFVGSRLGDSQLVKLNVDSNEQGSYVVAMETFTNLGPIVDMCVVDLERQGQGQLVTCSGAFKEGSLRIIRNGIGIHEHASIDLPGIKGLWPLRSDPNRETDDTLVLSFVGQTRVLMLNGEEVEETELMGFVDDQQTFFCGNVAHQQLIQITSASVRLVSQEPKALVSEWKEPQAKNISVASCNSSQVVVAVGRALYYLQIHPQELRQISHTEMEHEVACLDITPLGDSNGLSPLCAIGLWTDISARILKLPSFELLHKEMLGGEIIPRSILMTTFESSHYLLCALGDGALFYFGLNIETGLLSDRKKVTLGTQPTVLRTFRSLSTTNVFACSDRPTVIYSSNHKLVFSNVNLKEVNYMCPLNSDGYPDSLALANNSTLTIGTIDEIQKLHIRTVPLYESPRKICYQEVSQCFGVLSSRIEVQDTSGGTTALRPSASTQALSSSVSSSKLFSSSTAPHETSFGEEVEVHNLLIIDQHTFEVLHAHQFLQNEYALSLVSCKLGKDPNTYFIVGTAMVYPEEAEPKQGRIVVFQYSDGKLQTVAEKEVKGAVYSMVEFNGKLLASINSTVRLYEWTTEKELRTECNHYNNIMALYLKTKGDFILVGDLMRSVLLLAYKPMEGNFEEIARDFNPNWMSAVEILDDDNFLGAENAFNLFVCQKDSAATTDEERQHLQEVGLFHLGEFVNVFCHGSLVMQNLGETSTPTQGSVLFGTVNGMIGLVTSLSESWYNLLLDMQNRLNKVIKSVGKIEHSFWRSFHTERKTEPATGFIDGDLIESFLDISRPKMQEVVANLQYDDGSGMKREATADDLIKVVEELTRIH
# IKZF1 = target: T3, IKZF1 (Homo sapiens, UniProt Q13422+Q96SW2); test: as above; type: cell-based
# T3 construct: effects of the compounds of the present disclosure on the expression of target proteins in cells; endogenous in cells; host or cells: human PBMCs (Milecell Biotechnologies)
# T3 sequence (Q13422 whole entry): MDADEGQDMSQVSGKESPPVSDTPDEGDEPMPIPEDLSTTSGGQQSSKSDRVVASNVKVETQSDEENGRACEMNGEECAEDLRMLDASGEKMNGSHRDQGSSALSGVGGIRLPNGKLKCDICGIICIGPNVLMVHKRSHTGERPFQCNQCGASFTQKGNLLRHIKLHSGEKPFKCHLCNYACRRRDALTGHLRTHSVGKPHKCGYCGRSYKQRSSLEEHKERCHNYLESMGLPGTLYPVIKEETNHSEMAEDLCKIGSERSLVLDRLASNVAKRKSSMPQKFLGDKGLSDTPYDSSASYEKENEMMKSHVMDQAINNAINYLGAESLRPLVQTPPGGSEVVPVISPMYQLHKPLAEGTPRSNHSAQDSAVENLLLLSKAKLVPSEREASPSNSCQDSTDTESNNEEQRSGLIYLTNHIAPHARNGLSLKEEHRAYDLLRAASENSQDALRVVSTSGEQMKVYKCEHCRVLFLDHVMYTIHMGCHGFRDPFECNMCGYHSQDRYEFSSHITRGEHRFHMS
# T3 sequence (Q96SW2 whole entry): as the sequence (Q96SW2 whole entry) above
# T3 sequence (Q16531 whole entry partner): as the sequence (Q16531 whole entry partner) above
# IKZF2 = target: T4, IKZF2 (Homo sapiens, UniProt Q96SW2+Q9UKS7); test: as above; type: cell-based
# T4 construct: effects of the compounds of the present disclosure on the expression of target proteins in cells; endogenous in cells; host or cells: human PBMCs (Milecell Biotechnologies)
# T4 sequence (Q9UKS7 whole entry): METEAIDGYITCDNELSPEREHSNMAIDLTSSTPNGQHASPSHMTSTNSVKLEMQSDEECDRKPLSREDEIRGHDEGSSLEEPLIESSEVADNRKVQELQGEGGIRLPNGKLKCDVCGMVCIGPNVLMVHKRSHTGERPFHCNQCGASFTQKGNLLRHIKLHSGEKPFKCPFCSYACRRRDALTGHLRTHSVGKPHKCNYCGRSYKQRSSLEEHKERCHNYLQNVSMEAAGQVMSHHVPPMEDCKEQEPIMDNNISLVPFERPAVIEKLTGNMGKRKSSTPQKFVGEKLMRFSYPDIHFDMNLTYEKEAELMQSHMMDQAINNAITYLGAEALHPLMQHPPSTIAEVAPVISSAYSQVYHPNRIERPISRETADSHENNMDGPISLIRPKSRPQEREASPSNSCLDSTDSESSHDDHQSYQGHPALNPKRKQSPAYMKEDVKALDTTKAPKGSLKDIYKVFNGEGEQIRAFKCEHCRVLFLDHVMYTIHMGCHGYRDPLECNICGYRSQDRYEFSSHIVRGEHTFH
# T4 sequence (Q96SW2 whole entry): as the sequence (Q96SW2 whole entry) above
# T4 sequence (Q16531 whole entry partner): as the sequence (Q16531 whole entry partner) above
# IKZF3 = target: T5, IKZF3 (Homo sapiens, UniProt Q96SW2+Q9UKT9); test: as above; type: cell-based
# T5 construct: effects of the compounds of the present disclosure on the expression of target proteins in cells; endogenous in cells; host or cells: human PBMCs (Milecell Biotechnologies)
# T5 sequence (Q9UKT9 whole entry): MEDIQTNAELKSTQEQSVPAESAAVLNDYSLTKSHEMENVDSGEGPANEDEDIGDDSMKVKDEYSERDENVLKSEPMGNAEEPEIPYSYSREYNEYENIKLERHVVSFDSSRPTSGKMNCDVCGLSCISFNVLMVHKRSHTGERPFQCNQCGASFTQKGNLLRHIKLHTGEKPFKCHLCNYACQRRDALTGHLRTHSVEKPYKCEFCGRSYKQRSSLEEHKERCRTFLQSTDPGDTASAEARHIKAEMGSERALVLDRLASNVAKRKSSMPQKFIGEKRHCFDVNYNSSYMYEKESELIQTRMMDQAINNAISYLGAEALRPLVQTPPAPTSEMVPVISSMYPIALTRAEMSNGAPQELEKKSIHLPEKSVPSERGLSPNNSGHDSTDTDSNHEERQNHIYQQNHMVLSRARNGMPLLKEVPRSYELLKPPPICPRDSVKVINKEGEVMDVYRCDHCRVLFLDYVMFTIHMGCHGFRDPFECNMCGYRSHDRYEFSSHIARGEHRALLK
# T5 sequence (Q96SW2 whole entry): as the sequence (Q96SW2 whole entry) above
# T5 sequence (Q16531 whole entry partner): as the sequence (Q16531 whole entry partner) above
# WEE1 = target: T6, WEE1 (Homo sapiens, UniProt P30291+Q96SW2); test: as above; type: cell-based
# T6 construct: effects of the compounds of the present disclosure on the expression of target proteins in cells; endogenous in cells; host or cells: human PBMCs (Milecell Biotechnologies)
# T6 sequence (P30291 whole entry): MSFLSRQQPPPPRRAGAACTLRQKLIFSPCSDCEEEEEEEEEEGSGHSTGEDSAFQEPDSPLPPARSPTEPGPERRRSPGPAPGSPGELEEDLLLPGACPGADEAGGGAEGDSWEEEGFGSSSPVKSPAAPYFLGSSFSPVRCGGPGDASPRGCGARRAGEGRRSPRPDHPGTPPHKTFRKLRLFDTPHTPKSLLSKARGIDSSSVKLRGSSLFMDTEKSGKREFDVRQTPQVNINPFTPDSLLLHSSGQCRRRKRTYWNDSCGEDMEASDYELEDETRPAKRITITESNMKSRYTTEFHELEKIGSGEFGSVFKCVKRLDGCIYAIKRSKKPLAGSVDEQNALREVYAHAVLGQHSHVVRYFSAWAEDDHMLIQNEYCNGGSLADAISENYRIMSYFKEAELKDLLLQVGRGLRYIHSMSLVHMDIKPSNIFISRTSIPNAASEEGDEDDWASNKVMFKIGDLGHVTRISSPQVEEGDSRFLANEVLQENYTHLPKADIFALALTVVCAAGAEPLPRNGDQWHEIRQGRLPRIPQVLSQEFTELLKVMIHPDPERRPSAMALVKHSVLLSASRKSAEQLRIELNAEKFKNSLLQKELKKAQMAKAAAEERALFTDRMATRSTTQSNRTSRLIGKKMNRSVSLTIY
# T6 sequence (Q96SW2 whole entry): as the sequence (Q96SW2 whole entry) above
# T6 sequence (Q16531 whole entry partner): as the sequence (Q16531 whole entry partner) above
# GSPT1 = test: as above; type: cell-based, Human
# [3] = system: Human multiple myeloma cell (MM.1S); test: Tumor cell proliferation inhibition (CellTiter-Meiluncell luminescent cell viability assay); conditions: Homo sapiens, MM1.S, 96 h; for inhibition at 0.01 µM: read-out: Inhibition Rate at 10 nM (%); for inhibition at 0.5 µM: read-out: Inhibition Rate at 500 nM (%)
# [4] = system: Human acute T lymphocytic leukemia cell (Molt4); test: as above; conditions: MOLT-4, 96 h; for inhibition at 0.01 µM: read-out: Inhibition Rate at 10 nM (%); for inhibition at 0.5 µM: read-out: Inhibition Rate at 500 nM (%)
# Method: as §1, §2, §3
# [5] = system: Human myeloid monocytic leukemia cell (MV-4-11); test: as above; conditions: MV4-11, 96 h; for inhibition at 0.01 µM: read-out: Inhibition Rate at 10 nM (%); for inhibition at 0.5 µM: read-out: Inhibition Rate at 500 nM (%)
# [6] = Western blot, 24 hours of compound treatment, compounds tested at 50 nM and 500 nM (concentration for the table not stated)
# [7] = 24 hours treatment, compounds at 50 nM and 500 nM (concentration behind the class not stated)
# T1 sequence (Q96SW2 whole entry): as the sequence (Q96SW2 whole entry) above
SMILES,inhibition at 0.5 µM [1],inhibition at 2 µM [1],inhibition at 0.01 µM [2],inhibition at 0.5 µM [2],CK1α substrate protein remaining % (CK1α; [7]),IKZF 1 substrate protein remaining % (IKZF1; [7]),IKZF2 substrate protein remaining % (IKZF2; [7]),IKZF3 substrate protein remaining % (IKZF3; [7]),Wee1 substrate protein remaining % (WEE1; [7]),GSPT1 substrate protein remaining % (GSPT1; [7]),further results
"Cc1nc(C2CCN(Cc3cccc4c3CN(C3CCC(=O)NC3=O)C4=S)CC2)c2c(-c3ccccc3)csc2n1 (stereo not shown) [GT-08931, 3-(4-((4-(2-methyl-5-phenylthieno[2,3-d]pyrimidin-4-yl)piperidin-1-yl)methyl)-1-thioxoisoindolin-2-yl)piperidine-2,6-dione]",40 to 53%,80 to 100%,30 to 40%,60 to 70%,,,,,,,
"O=C1CCC(N2Cc3c(CN4CC=C(c5n[nH]c6cc(F)ccc56)CC4)cccc3C2=S)C(=O)N1 (stereo not shown) [GT-08850, 3-(4-((4-(6-fluoro-1H-indazol-3-yl)-3,6-dihydropyridin-1(2H)-yl)methyl)-1-thioxoisoindolin-2-yl)piperidine-2,6-dione]",60 to 80%,80 to 100%,40 to 50%,50 to 60%,,,,,,,CK1α substrate protein remaining % (CK1α; [6]): B (80%< substrate protein remaining %≤ 100%); IKZF 1 substrate protein remaining % (IKZF1; [6]): B (80%< substrate protein remaining %≤ 100%); IKZF2 substrate protein remaining % (IKZF2; [6]): B (80%< substrate protein remaining %≤ 100%); IKZF3 substrate protein remaining % (IKZF3; [6]): B (80%< substrate protein remaining %≤ 100%); Wee1 substrate protein remaining % (WEE1; [6]): B (80%< substrate protein remaining %≤ 100%); GSPT1 substrate protein remaining % (GSPT1; [6]): A (0% ≤ substrate protein remaining % ≤ 80%)
"O=C1CCC(N2Cc3c(CN4CC=C(c5ncnc6sccc56)CC4)cccc3C2=S)C(=O)N1 (stereo not shown) [GT-08937, 3-(4-((4-(thieno[2,3-d]pyrimidin-4-yl)-3,6-dihydropyridin-1(2H)-yl)methyl)-1-thioxoisoindolin-2-yl)piperidine-2,6-dione]",60 to 80%,80 to 100%,30 to 40%,40 to 50%,B (80%< substrate protein remaining %≤ 100%),B (80%< substrate protein remaining %≤ 100%),B (80%< substrate protein remaining %≤ 100%),B (80%< substrate protein remaining %≤ 100%),A (0% ≤ substrate protein remaining % ≤ 80%),A (0% ≤ substrate protein remaining % ≤ 80%),
"O=C1CCC(N2Cc3c(CN4CCC(c5ncnc6sc7c(c56)CCC7)CC4)cccc3C2=S)C(=O)N1 (stereo not shown) [GT-08934, 3-(4-((4-(6,7-dihydro-5H-cyclopenta[4,5]thieno[2,3-d]pyrimidin-4-yl)piperidin-1-yl)methyl)-1-thioxoisoindolin-2-yl)piperidine-2,6-dione]",40 to 53%,53 to 60%,30 to 40%,40 to 50%,B (80%< substrate protein remaining %≤ 100%),A (0% ≤ substrate protein remaining % ≤ 80%),B (80%< substrate protein remaining %≤ 100%),A (0% ≤ substrate protein remaining % ≤ 80%),A (0% ≤ substrate protein remaining % ≤ 80%),A (0% ≤ substrate protein remaining % ≤ 80%),
"O=C1CCC(N2Cc3c(CN4CCC(c5ncnc6sccc56)CC4)cccc3C2=S)C(=O)N1 (stereo not shown) [GT-08928, 3-(4-((4-(thieno[2,3-d]pyrimidin-4-yl)piperidin-1-yl)methyl)-1-thioxoisoindolin-2-yl)piperidine-2,6-dione]",60 to 80%,80 to 100%,40 to 50%,60 to 70%,B (80%< substrate protein remaining %≤ 100%),B (80%< substrate protein remaining %≤ 100%),B (80%< substrate protein remaining %≤ 100%),B (80%< substrate protein remaining %≤ 100%),A (0% ≤ substrate protein remaining % ≤ 80%),B (80%< substrate protein remaining %≤ 100%),
"O=C1CCC(N2Cc3cc(CN4CCN(c5nc(N6CCOCC6)nc6c5SCC6)CC4)ccc3C2=S)C(=O)N1 (stereo not shown) [GT-09329, 3-(5-((4-(2-morpholino-6,7-dihydrothieno[3,2-d]pyrimidin-4-yl)piperazin-1-yl)methyl)-1-thioxoisoindolin-2-yl)piperidine-2,6-dione]",60 to 80%,80 to 100%,20 to 30%,40 to 50%,B (80%< substrate protein remaining %≤ 100%),B (80%< substrate protein remaining %≤ 100%),A (0% ≤ substrate protein remaining % ≤ 80%),B (80%< substrate protein remaining %≤ 100%),B (80%< substrate protein remaining %≤ 100%),A (0% ≤ substrate protein remaining % ≤ 80%),
"O=C1CCC(N2Cc3cc(CN4C5CCC4CN(c4cccc(Cl)c4Cl)C5)ccc3C2=S)C(=O)N1 (stereo not shown) [GT-08480, 3-(5-((3-(2,3-dichlorophenyl)-3,8-diazabicyclo[3.2.1]octan-8-yl)methyl)-1-thioxoisoindolin-2-yl)piperidine-2,6-dione]",40 to 53%,80 to 100%,,,,,,,,,CK1α substrate protein remaining % (CK1α; [6]): B (80%< substrate protein remaining %≤ 100%); IKZF 1 substrate protein remaining % (IKZF1; [6]): B (80%< substrate protein remaining %≤ 100%); IKZF2 substrate protein remaining % (IKZF2; [6]): B (80%< substrate protein remaining %≤ 100%); IKZF3 substrate protein remaining % (IKZF3; [6]): B (80%< substrate protein remaining %≤ 100%); Wee1 substrate protein remaining % (WEE1; [6]): B (80%< substrate protein remaining %≤ 100%); GSPT1 substrate protein remaining % (GSPT1; [6]): A (0% ≤ substrate protein remaining % ≤ 80%); inhibition at 0.01 µM [3]: 20 to 30%; inhibition at 0.5 µM [3]: 80 to 100%; inhibition at 0.01 µM [4]: 0 to 5%; inhibition at 0.5 µM [4]: 80 to 100%; inhibition at 0.01 µM [5]: 25 to 30%; inhibition at 0.5 µM [5]: 80 to 100%
"O=C1CCC(N2Cc3cc(CN4CCN(c5nccc(Cl)c5Br)CC4)ccc3C2=S)C(=O)N1 (stereo not shown) [GT-09245, 3-(5-((4-(3-bromo-4-chloropyridin-2-yl)piperazin-1-yl)methyl)-1-thioxoisoindolin-2-yl)piperidine-2,6-dione]",60 to 80%,80 to 100%,,,B (80%< substrate protein remaining %≤ 100%),A (0% ≤ substrate protein remaining % ≤ 80%),A (0% ≤ substrate protein remaining % ≤ 80%),B (80%< substrate protein remaining %≤ 100%),B (80%< substrate protein remaining %≤ 100%),A (0% ≤ substrate protein remaining % ≤ 80%),inhibition at 0.01 µM [3]: 40 to 50%; inhibition at 0.5 µM [3]: 70 to 80%; inhibition at 0.01 µM [4]: 10 to 20%; inhibition at 0.5 µM [4]: 50 to 60%; inhibition at 0.01 µM [5]: 60 to 80%; inhibition at 0.5 µM [5]: 80 to 100%
